Data taken from ChEMBL document CHEMBL1201862, “PubChem BioAssay data set” (2004).
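All cell lines were grown in 96-well plates and treated with compound for 48 hours. GI50: concentration for 50% inhibition of growth.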 Calls of active or inactive are those of the source. Rule as the data show it: active = GI50 up to about 1.1 µM and inactive = higher.

Experiments:
Assay in all cases: inhibition of tumour cell growth, NCI panel, 48 h
CAKI-1 = system: CAKI-1
A498 = system: A498
HCT-15 = system: HCT-15
TK-10 = system: TK-10
OVCAR-3 = system: OVCAR-3
HT-29 = system: HT-29
KM12 = system: KM12
DU-145 = system: DU-145
Malme-3M = system: Malme-3M
SK-MEL-2 = system: SK-MEL-2
SF-539 = system: SF-539
UACC-257 = system: UACC-257
RXF 393 = system: RXF 393
SW-620 = system: SW-620
786-0 = system: 786-0
SN12C = system: SN12C
COLO 205 = system: COLO 205
OVCAR-5 = system: OVCAR-5
M14 = system: M14
HL-60 = system: HL-60

| Compound | GI50 (CAKI-1) | GI50 (A498) | GI50 (HCT-15) [µM] | GI50 (TK-10) | GI50 (OVCAR-3) | GI50 (HT-29) | GI50 (KM12) | GI50 (DU-145) | GI50 (Malme-3M) | GI50 (SK-MEL-2) | GI50 (SF-539) | GI50 (UACC-257) | GI50 (RXF 393) | GI50 (SW-620) | GI50 (786-0) | GI50 (SN12C) | GI50 (COLO 205) | GI50 (OVCAR-5) | GI50 (M14) | GI50 (HL-60) |
| --- | --- | --- | --- | --- | --- | --- | --- | --- | --- | --- | --- | --- | --- | --- | --- | --- | --- | --- | --- | --- |
| CN(N=O)C(=O)N[C@H]1C(O)O[C@H](CO)[C@@H](O)[C@@H]1O (stereo not given in full) | 429 µM (inactive) | 593 µM (inactive) | 622 | > 750 µM (inactive) | 653 µM (inactive) | 618 µM (inactive) | 625 µM (inactive) | > 750 µM (inactive) | 600 µM (inactive) | 647 µM (inactive) | 612 µM (inactive) | 600 µM (inactive) | 600 µM (inactive) | 511 µM (inactive) | 309 µM (inactive) | 581 µM (inactive) | 596 µM (inactive) | 647 µM (inactive) | > 750 µM (inactive) | 499 µM (inactive) |
| O=C(O)c1ccc(CNCc2ccccc2)cc1 | > 100 µM (inactive) | > 100 µM (inactive) | > 100 | > 100 µM (inactive) | > 100 µM (inactive) | > 100 µM (inactive) | > 100 µM (inactive) | > 100 µM (inactive) | > 100 µM (inactive) | > 100 µM (inactive) | > 100 µM (inactive) | > 100 µM (inactive) | > 100 µM (inactive) | > 100 µM (inactive) | > 100 µM (inactive) | > 100 µM (inactive) | > 100 µM (inactive) | > 100 µM (inactive) | > 100 µM (inactive) | > 100 µM (inactive) |
| C/N=C(N)/N=C(\N)Nc1cc2ccccc2c2ccccc12 | 14.5 µM (inactive) | 11.2 µM (inactive) | 16.7 | 13 µM (inactive) | 16.7 µM (inactive) | 15 µM (inactive) | 17.1 µM (inactive) | 15.2 µM (inactive) | 15 µM (inactive) | 18 µM (inactive) | 15.2 µM (inactive) | 16.7 µM (inactive) | 14.9 µM (inactive) | 16.6 µM (inactive) | 12.4 µM (inactive) | 12.5 µM (inactive) | 13.7 µM (inactive) | 17.5 µM (inactive) | 17 µM (inactive) | 4.06 µM (inactive) |
| N=c1oc2ccccc2cc1C(=O)NC12CC3CC(CC(C3)C1)C2 | 7.52 µM (inactive) | 22.1 µM (inactive) | 12.5 | 16 µM (inactive) | 12.5 µM (inactive) | 6.11 µM (inactive) | 12 µM (inactive) | 13.2 µM (inactive) | 32.1 µM (inactive) | 14 µM (inactive) | 16.9 µM (inactive) | 23 µM (inactive) | 6.52 µM (inactive) | 19.3 µM (inactive) | 2.88 µM (inactive) | 28.2 µM (inactive) | 14.1 µM (inactive) | 37.5 µM (inactive) | 25.7 µM (inactive) | 9.16 µM (inactive) |
| CC(=O)O[C@H]1CC[C@@H](OC(C)=O)[C@H]2[C@H](O)[C@H](O)[C@@H]1n1c(=O)n(-c3ccccc3)c(=O)n12 | > 100 µM (inactive) | > 100 µM (inactive) | > 100 | > 100 µM (inactive) | > 100 µM (inactive) | > 100 µM (inactive) | > 100 µM (inactive) | > 100 µM (inactive) | > 100 µM (inactive) | > 100 µM (inactive) | > 100 µM (inactive) | > 100 µM (inactive) | > 100 µM (inactive) | > 100 µM (inactive) | > 100 µM (inactive) | > 100 µM (inactive) | > 100 µM (inactive) | > 100 µM (inactive) | > 100 µM (inactive) | > 100 µM (inactive) |
| O=C1C=CC2(C=C1)C[C@H](NC(=O)OCc1ccccc1)C(=O)O2 | 18 µM (inactive) | > 61.7 µM (inactive) | 11 | 15.2 µM (inactive) | 15.5 µM (inactive) | 13.8 µM (inactive) | 18.9 µM (inactive) | 30.5 µM (inactive) | 13 µM (inactive) | 19.3 µM (inactive) | 22.4 µM (inactive) | 16.9 µM (inactive) | 10.2 µM (inactive) | 4.31 µM (inactive) | 14.3 µM (inactive) | 18.2 µM (inactive) | 5.93 µM (inactive) | 20.1 µM (inactive) | 15.5 µM (inactive) | 2.04 µM (inactive) |
| COc1cccc(N2C(=O)C3CC(CC(C)(C)C)c4c([nH]c5ccccc45)C3C2=O)c1 (stereo not given) | > 10 µM (inactive) | > 10 µM (inactive) | > 10 | > 10 µM (inactive) | > 10 µM (inactive) | > 10 µM (inactive) | > 10 µM (inactive) | > 10 µM (inactive) | 5.9 µM (inactive) | > 10 µM (inactive) | 2.56 µM (inactive) | > 10 µM (inactive) | > 10 µM (inactive) | > 10 µM (inactive) | 3.8 µM (inactive) | 6 µM (inactive) | > 10 µM (inactive) | > 10 µM (inactive) | 5.82 µM (inactive) | > 10 µM (inactive) |
| N#Cc1c(Cl)cc(C#N)n2c1nc1ccccc12 | 5.64 µM (inactive) | 24.5 µM (inactive) | 6.07 | 13.2 µM (inactive) | 5.28 µM (inactive) | 6.87 µM (inactive) | 6.98 µM (inactive) | 20.8 µM (inactive) | 5.35 µM (inactive) | 17 µM (inactive) | 7.24 µM (inactive) | 14.9 µM (inactive) | 14.2 µM (inactive) | 3.47 µM (inactive) | 2.59 µM (inactive) | 19.4 µM (inactive) | 4.4 µM (inactive) | 16.4 µM (inactive) | 9.71 µM (inactive) | 1.18 µM (inactive) |
| CCOC(=O)C1CCCCN1C(=O)Cc1c[nH]c2ccccc12 (stereo not given) | 69.7 µM (inactive) | 33.9 µM (inactive) | 87.7 | > 100 µM (inactive) | 52.6 µM (inactive) | 72.9 µM (inactive) | 41.3 µM (inactive) | 84.1 µM (inactive) | 57.4 µM (inactive) | 61.9 µM (inactive) | > 100 µM (inactive) | 79.3 µM (inactive) | 76.9 µM (inactive) | 94.8 µM (inactive) | > 100 µM (inactive) | > 100 µM (inactive) | 66.2 µM (inactive) | > 100 µM (inactive) | 63.4 µM (inactive) | 31.3 µM (inactive) |
| CC(=O)OC[C@@]1(C)[C@@H]2[C@@H]3[C@@]4(CO[C@]3(C)C(=O)[C@@]3(OC(C)=O)C[C@H](C)[C@H](OC(C)=O)[C@@H]3[C@H]4OC(C)=O)[C@H](OC(=O)c3ccccc3)C[C@@H]21 | > 100 µM (inactive) | > 100 µM (inactive) | > 100 | > 100 µM (inactive) | > 100 µM (inactive) | 89.9 µM (inactive) | > 100 µM (inactive) | > 100 µM (inactive) | > 100 µM (inactive) | > 100 µM (inactive) | > 100 µM (inactive) | > 100 µM (inactive) | > 100 µM (inactive) | 78.5 µM (inactive) | > 100 µM (inactive) | > 100 µM (inactive) | 49.8 µM (inactive) | > 100 µM (inactive) | 91.4 µM (inactive) | 63.8 µM (inactive) |
| CC1OC(c2ccc3c(c2O)C(=O)C2=C(C3=O)C3(O)C(=O)CC(C)(O)CC3(O)C=C2)CC(O)C1O (stereo not given) | 7.28 µM (inactive) | 18.2 µM (inactive) | 14.5 | 15.1 µM (inactive) | 5.35 µM (inactive) | 5.4 µM (inactive) | 21.3 µM (inactive) | 15.6 µM (inactive) | 2.99 µM (inactive) | 20.5 µM (inactive) | 17.7 µM (inactive) | 15 µM (inactive) | 11.4 µM (inactive) | 7.98 µM (inactive) | 16.8 µM (inactive) | 15 µM (inactive) | 1.75 µM (inactive) | 17 µM (inactive) | 16.1 µM (inactive) | 1.98 µM (inactive) |
| CCN(CC)CC(O)C1CCC(c2ccccc2)CC1 (stereo not given) | 19 µM (inactive) | 14.4 µM (inactive) | 13.2 | 15.3 µM (inactive) | 44 µM (inactive) | 10.5 µM (inactive) | 24 µM (inactive) | 61 µM (inactive) | 16.3 µM (inactive) | 16.7 µM (inactive) | 16.7 µM (inactive) | 21 µM (inactive) | 17.4 µM (inactive) | 24.8 µM (inactive) | 15.6 µM (inactive) | 39.7 µM (inactive) | 12.8 µM (inactive) | 23.2 µM (inactive) | 25.1 µM (inactive) | 28.9 µM (inactive) |
| CCCNC(=O)CCC(C)[C@H]1CCC2C3C(C[C@H](OC(C)=O)[C@@]21C)[C@@]1(C)CCC2(C[C@H]1C[C@H]3OC(C)=O)OOC1(CCCCC1)OO2 (stereo not given in full) | 0.367 µM (active) | 33.7 µM (inactive) | 3.68 | 1.95 µM (inactive) | 1.87 µM (inactive) | 3.96 µM (inactive) | 1.44 µM (inactive) | 1.85 µM (inactive) | 2.13 µM (inactive) | 2 µM (inactive) | 3.66 µM (inactive) | 5.3 µM (inactive) | 3.24 µM (inactive) | 4.58 µM (inactive) | 2.31 µM (inactive) | 3.01 µM (inactive) | 1.75 µM (inactive) | 2.67 µM (inactive) | 5.02 µM (inactive) | 1.51 µM (inactive) |
| C=Cc1c(C)c(O)cc2c1-c1ccc(O)c(C)c1CC2 | 13.9 µM (inactive) | 11.6 µM (inactive) | 12.2 | 13.1 µM (inactive) | 25.8 µM (inactive) | 23.7 µM (inactive) | 14.3 µM (inactive) | 14.1 µM (inactive) | 19.6 µM (inactive) | 17.1 µM (inactive) | 13.5 µM (inactive) | 14.8 µM (inactive) | 10.9 µM (inactive) | 23.4 µM (inactive) | 15.8 µM (inactive) | 17.5 µM (inactive) | 19.3 µM (inactive) | 27.2 µM (inactive) | 20.9 µM (inactive) | 15 µM (inactive) |
